Measured values as given in ChEMBL document CHEMBL1127546, “New thiol inhibitors of neutral endopeptidase EC 3.4.24.11: synthesis and enzyme active-site recognition” (J Med Chem, 1994).

What was measured:
Neprilysin [1] = molecular target: T1, Neprilysin (Oryctolagus cuniculus, UniProt P08049); experiment: Tested for inhibitory potency against neutral endopeptidase (NEP)
T1 sequence (P08049 whole entry): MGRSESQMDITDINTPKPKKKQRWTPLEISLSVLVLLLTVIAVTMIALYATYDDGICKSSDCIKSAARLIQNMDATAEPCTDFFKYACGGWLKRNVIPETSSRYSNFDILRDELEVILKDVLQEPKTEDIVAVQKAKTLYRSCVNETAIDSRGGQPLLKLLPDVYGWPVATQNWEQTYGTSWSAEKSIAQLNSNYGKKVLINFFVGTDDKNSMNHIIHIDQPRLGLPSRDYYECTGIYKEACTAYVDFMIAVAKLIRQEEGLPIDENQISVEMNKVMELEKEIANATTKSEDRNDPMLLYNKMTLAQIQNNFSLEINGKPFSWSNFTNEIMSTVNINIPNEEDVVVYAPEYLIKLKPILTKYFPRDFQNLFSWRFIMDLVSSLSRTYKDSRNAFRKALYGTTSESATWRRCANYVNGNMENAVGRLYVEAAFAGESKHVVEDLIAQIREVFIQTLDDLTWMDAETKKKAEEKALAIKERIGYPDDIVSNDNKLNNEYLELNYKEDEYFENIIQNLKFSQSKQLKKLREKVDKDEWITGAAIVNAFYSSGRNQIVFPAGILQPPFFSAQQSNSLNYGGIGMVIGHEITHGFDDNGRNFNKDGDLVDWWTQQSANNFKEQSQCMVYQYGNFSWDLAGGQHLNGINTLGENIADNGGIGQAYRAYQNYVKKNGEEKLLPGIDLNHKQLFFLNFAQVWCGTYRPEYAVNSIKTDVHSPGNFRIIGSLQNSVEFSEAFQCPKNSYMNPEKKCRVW

[2] = molecular target: T2, Angiotensin-converting enzyme (Homo sapiens, UniProt P12821); experiment: Tested for inhibitory potency against Angiotensin I Converting Enzyme
T2 sequence (P12821 whole entry): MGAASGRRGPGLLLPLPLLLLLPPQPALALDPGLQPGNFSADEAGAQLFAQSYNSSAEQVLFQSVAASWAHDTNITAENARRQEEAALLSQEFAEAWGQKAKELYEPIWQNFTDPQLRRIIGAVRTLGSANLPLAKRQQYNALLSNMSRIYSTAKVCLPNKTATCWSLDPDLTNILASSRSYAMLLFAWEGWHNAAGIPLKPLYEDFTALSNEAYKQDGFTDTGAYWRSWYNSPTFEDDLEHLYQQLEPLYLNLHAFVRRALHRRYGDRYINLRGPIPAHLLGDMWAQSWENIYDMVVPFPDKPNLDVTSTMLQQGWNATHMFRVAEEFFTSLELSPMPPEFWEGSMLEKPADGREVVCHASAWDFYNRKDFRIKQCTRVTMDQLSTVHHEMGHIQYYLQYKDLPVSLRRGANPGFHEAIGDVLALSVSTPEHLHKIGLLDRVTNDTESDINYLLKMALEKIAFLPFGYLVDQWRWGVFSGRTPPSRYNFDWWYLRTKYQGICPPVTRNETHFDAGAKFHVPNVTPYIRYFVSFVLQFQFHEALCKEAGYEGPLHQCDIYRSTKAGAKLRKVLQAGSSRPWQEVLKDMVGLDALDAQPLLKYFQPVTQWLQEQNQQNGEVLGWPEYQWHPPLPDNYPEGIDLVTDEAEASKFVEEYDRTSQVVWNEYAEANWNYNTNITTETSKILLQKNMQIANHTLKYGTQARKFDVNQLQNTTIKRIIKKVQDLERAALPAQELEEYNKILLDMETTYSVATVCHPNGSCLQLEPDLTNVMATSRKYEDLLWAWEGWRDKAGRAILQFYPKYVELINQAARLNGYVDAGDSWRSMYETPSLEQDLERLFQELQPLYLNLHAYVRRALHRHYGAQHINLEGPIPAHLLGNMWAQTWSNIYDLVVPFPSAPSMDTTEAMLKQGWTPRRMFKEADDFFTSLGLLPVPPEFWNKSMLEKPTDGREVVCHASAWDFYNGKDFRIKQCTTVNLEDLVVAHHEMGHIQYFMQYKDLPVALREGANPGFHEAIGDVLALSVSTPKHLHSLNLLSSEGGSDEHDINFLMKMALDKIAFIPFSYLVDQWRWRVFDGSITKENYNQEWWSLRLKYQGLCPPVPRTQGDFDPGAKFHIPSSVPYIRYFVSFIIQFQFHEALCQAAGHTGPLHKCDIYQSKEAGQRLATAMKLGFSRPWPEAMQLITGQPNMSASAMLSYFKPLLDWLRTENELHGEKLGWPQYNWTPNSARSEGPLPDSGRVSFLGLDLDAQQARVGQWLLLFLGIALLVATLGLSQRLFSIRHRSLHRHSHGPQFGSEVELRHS

Thermolysin = molecular target: T3, Thermolysin (Bacillus thermoproteolyticus, UniProt P00800); experiment: Tested for binding affinity against Thermolysin; design: species or system Bacteria
T3 sequence (P00800 whole entry): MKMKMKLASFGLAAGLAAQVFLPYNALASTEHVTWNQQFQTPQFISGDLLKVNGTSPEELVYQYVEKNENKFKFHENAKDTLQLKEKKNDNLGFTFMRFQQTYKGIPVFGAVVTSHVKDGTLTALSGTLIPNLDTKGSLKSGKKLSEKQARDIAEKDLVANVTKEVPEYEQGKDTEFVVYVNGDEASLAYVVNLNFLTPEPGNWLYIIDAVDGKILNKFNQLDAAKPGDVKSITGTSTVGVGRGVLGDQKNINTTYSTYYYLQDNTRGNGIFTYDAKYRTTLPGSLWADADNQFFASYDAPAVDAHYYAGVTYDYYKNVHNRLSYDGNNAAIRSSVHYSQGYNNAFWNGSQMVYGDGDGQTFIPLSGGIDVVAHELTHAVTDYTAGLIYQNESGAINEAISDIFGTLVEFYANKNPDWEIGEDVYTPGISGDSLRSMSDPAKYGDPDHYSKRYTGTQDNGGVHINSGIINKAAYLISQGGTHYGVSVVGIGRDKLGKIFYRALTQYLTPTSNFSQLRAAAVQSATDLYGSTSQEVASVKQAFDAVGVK

Neprilysin [3] = molecular target: T1, Neprilysin; experiment: Tested for binding affinity against neutral endopeptidase (NEP)
[4] = molecular target: T2, Angiotensin-converting enzyme; experiment: Tested for inhibitory potency against Angiotensin I converting enzyme

| Compound | IC50 (Neprilysin [1]) | IC50 [2] | also measured |
| --- | --- | --- | --- |
| CCC(C)C(S)CC(Cc1ccccc1)C(=O)NC(Cc1ccc(O)cc1)C(N)=O (stereo unspecified) | 0.35 µM | 3.5 µM |  |
| O=C(O)C1CCCN1C(=O)C(Cc1ccccc1)CC(S)Cc1ccccc1 (stereo unspecified) | 0.32 µM | 3.6 µM |  |
| CCC(C)C(S)CC(Cc1ccccc1)C(=O)N[C@@H](Cc1ccc(O)cc1)C(=O)O (stereo partly specified) | 0.27 µM | 4.4 µM |  |
| CCC(C)C1CC(Cc2ccccc2)SC1=O (stereo unspecified) | 0.22 µM | 2.3 µM |  |
| CCC(C)C(CC(S)Cc1ccccc1)C(=O)NC(Cc1ccc(O)cc1)C(=O)O (stereo unspecified) | 0.22 µM | 0.8 µM |  |
| CCC(C)C(S)CC(C(=O)NC(Cc1ccc(O)cc1)C(N)=O)C(C)CC (stereo unspecified) | 0.36 µM | 4 µM |  |
| CCC(C)C(CC(S)Cc1ccccc1)C(=O)O (stereo unspecified) | 0.25 µM | 4 µM |  |
| O=C(NC(Cc1ccc(O)cc1)C(=O)O)C(Cc1ccccc1)CC(S)Cc1ccccc1 (stereo unspecified) | 0.15 µM | 2.4 µM |  |
| O=C(O)CCNC(=O)C(Cc1ccccc1)CC(S)Cc1ccccc1 (stereo unspecified) | 0.29 µM | 3.5 µM |  |
| CCC(C)C(S)CC(C(=O)NC(Cc1ccc(O)cc1)C(=O)O)C(C)CC (stereo unspecified) | 0.38 µM | 3.4 µM |  |
| CC(C)CC(S)C(Cc1ccccc1)C(=O)NC(C)C(=O)O (stereo unspecified) | 0.0036 µM |  | IC50 (Thermolysin): 4 µM |
| O=C(O)C(CCc1ccccc1)N[C@@H](Cc1ccccc1)C(=O)NC[C@H](O)C(=O)O (stereo partly specified) |  |  | Ki (Neprilysin [3]): 0.011 µM |
| CC(NC(=O)C(Cc1ccccc1)CC(S)c1ccccc1)C(=O)O (stereo unspecified) | 0.13 µM | 3.5 µM |  |
| CCC(C)C(CC(S)Cc1ccccc1)C(=O)N1CCCC1C(=O)O (stereo unspecified) | 0.35 µM | 2.8 µM |  |
| CC(NC(=O)C(Cc1ccccc1)CC(S)Cc1ccccc1)C(=O)O (stereo unspecified) | 0.19 µM |  | IC50 [4]: 3.8 µM |
| O=C(O)CCNC(=O)C(Cc1ccccc1)CC(Cc1ccccc1)C(=O)O (stereo unspecified) | 0.018 µM |  |  |
| CCC(C)C(CC(S)CCc1ccccc1)C(=O)NC(Cc1ccc(O)cc1)C(=O)O (stereo unspecified) | 0.26 µM | 2.9 µM |  |
| CC(C)C[C@H](NC(CCc1ccccc1)C(=O)O)C(=O)N[C@@H](Cc1c[nH]c2ccccc12)C(=O)O (stereo partly specified) |  |  | Ki (Thermolysin): 0.05 µM |
| CCC(C)C(S)CC(Cc1ccccc1)C(=O)N[C@H](Cc1ccc(O)cc1)C(=O)O (stereo partly specified) | 0.32 µM | 8 µM |  |
| O=C(O)CNC(=O)[C@@H](CS)Cc1ccccc1 [THIORPHAN] |  |  | IC50 (Thermolysin): 1.8 µM |
